Assay results reported in US9593103B2, “Pyridyl hydrazones for the treatment of tuberculosis and related diseases” (TECNIMEDE SOCIEDADE TECNICO-MEDICINAL S.A., priority 2012, dated 2017).

System: Mycobacterium smegmatis
Assay: In vitro Mycobacterium smegmatis growth inhibition assay (suspension turbidity, 96 hours)
Format: cell-based
Details: for % of Celular Growth at 96 hours: Mycobacterium smegmatis; for inhibitory activity against Mycobacterium smegmatis growth (in words, compared with RMP): compared with the active control RMP; for IC50: concentration to inhibit 50% of Mycobacterium smegmatis growth, four parameter curve fit

Compound | % of Celular Growth at 96 hours (concentration 1.23 μM) | % of Celular Growth at 96 hours (concentration 3.70 μM) | % of Celular Growth at 96 hours (concentration 11.11 μM) | % of Celular Growth at 96 hours (concentration 33.33 μM) | % of Celular Growth at 96 hours (concentration 100.00 μM) | inhibitory activity against Mycobacterium smegmatis growth (in words, compared with RMP) | inhibitory activity against Mycobacterium smegmatis growth (in words, compared with RMP) (listed as N-pyridin-2-yl-N′-5-methyl-2-hydroxyphenylmethylene-hydrazine) | IC50 | inhibitory activity against Mycobacterium smegmatis growth (in words, compared with RMP) (listed as compound 42) | inhibitory activity against Mycobacterium smegmatis growth (in words, compared with RMP) (listed as N-pyridin-2-yl-N′-5-bromo-2-hydroxyphenylmethylene-hydrazine) | IC50 (Mycolicibacterium smegmatis)
2-hydroxy-5-methylbenzaldehyde-(2-pyridinyl)hydrazine [Compound 61] | 75.35% | 69.76% | 83.84% | 20.08% | 24.45% | better IC50 values than RMP | desired pharmacological activity | 13.5 µM | – | – | –
3,5-dibromo-2-hydroxybenzaldehyde (2-pyridinyl)hydrazine [Compound 42] | 110.06% | 104.48% | 98.17% | 41.52% | 31.91% | better IC50 values than RMP | – | 15.2 µM | superior inhibitory activity against Mycobacterium smegmatis than the prior art compound RMP | – | –
Oc1ccc(Br)cc1C=NNc1ccccn1 [Compound 70, 5-bromo-2-hydroxybenzaldehyde-2pyridinilhydrazone] | 95.9% | 96.6% | 80.0% | 44.2% | 38.9% | better IC50 values than RMP | – | 13.9 µM | – | desired pharmacological activity | –
C(=NNc1ccccn1)c1cccs1 [N-pyridin-2-yl-N′-thiophen-2-ylmethylene-hydrazine] | – | – | – | – | – | desired pharmacological activity | – | – | – | – | –
CO[C@H]1/C=C/O[C@@]2(C)Oc3c(C)c(O)c4c(O)c(c(/C=N/N5CCN(C)CC5)c(O)c4c3C2=O)NC(=O)/C(C)=C\C=C\[C@H](C)[C@H](O)[C@@H](C)[C@@H](O)[C@@H](C)[C@H](OC(C)=O)[C@@H]1C [Rifampicin, reference compound] | 82.55% | 81.40% | 90.62% | 58.04% | 22.26% | – | – | – | – | – | 24.8 µM
